Results published in patent US20060069132A1, “Azolecarboxamide herbicides” (priority 2004, published 2006).

Tests used:
[1] = tested on: bermudagrass; test: Test C pre-/postemergence herbicide test; format: in vivo, Cynodon dactylon; details: for Bermudagrass plant response rating: Preemergence
Method in brief: (§1)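 Pre- and postemergence application, solvent/surfactant formulation; post at 1- to 4-leaf stage (2–18 cm). Greenhouse 12–14 d. Visual rating vs controls, 0 = no effect, 100 = complete control.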

[2] = tested on: large crabgrass; test: Test C pre-/postemergence herbicide test; format: in vivo, Digitaria sanguinalis
Method in brief: as §1

[3] = tested on: woolly cupgrass; test: Test C pre-/postemergence herbicide test; format: in vivo, Eriochloa villosa
Method in brief: as §1

[4] = tested on: giant foxtail; test: Test C pre-/postemergence herbicide test; format: in vivo, Setaria faberi
Method in brief: as §1

[5] = tested on: goosegrass; test: Test C pre-/postemergence herbicide test; format: in vivo, Eleusine indica
Method in brief: as §1

[6] = tested on: pigweed; test: Test C pre-/postemergence herbicide test; format: in vivo, Amaranthus retroflexus
Method in brief: as §1

[7] = tested on: ducksalad; test: Test C flooded paddy test; format: in vivo, Heteranthera limosa
[8] = 62 g ai/ha, preemergence, scale 0 to 100, 0 no effect, 100 complete control
[9] = 125 g ai/ha, scale 0 (no effect) to 100 (complete control), visual, 12 to 14 days, preemergence
[10] = 250 g ai/ha, scale 0-100, preemergence
[11] = 500 g ai/ha, scale 0 to 100, 0 no effect, 100 complete control
[12] = 62 g ai/ha, preemergence, scale 0 to 100
[13] = 500 g ai/ha, scale 0 to 100 (0 no effect, 100 complete control), visual, 12 to 14 days, preemergence
[14] = 125 g ai/ha, scale 0 to 100 (0 no effect, 100 complete control)
[15] = 250 g ai/ha, scale of 0 to 100, 0 is no effect, 100 is complete control
[16] = 500 g ai/ha, visual rating after 12 to 14 days, scale 0 to 100 (0 no effect, 100 complete control)

SMILES: CCc1nn(C(C)(C)C)cc1C(=O)Nc1cc(C(=O)N(C)C)ccn1 [Compound 293]
- Plant response rating, Bermudagrass [1, 8]: 90
- Plant response rating, Bermudagrass [1, 9]: 95
- Plant response rating, Bermudagrass [1, 10]: 100
- Bermudagrass plant response rating [1, 11]: 100
- Plant response rating, Crabgrass, Large [2, 12]: 95
- Plant response rating, Crabgrass, Large [2, 9]: 95
- Plant response rating, Crabgrass, Large [2, 10]: 100
- Plant response rating, Crabgrass, Large [2, 13]: 100
- Plant response rating, Cupgrass, Woolly [3, 12]: 45
- Plant response rating, Cupgrass, Woolly [3, 9]: 70
- Plant response rating, Cupgrass, Woolly [3, 10]: 95
- Plant response rating, Cupgrass, Woolly [3, 13]: 100
- Plant response rating, Foxtail, Giant [4, 12]: 10
- Plant response rating, Foxtail, Giant [4, 9]: 70
- Plant response rating, Foxtail, Giant [4, 10]: 100
- Plant response rating, Foxtail, Giant [4, 13]: 100
- Plant response rating, Goosegrass [5, 12]: 65
- Plant response rating, Goosegrass [5, 9]: 85
- Plant response rating, Goosegrass [5, 10]: 95
- Plant response rating, Goosegrass [5, 13]: 100
- Plant response rating, Pigweed [6, 12]: 20
- Plant response rating, Pigweed [6, 9]: 85
- Plant response rating, Pigweed [6, 10]: 95
- Plant response rating, Pigweed [6, 13]: 100
- Ducksalad plant response rating ([7]; 62 g ai/ha, scale 0 to 100): 0
- Ducksalad plant response rating [7, 14]: 65
- Ducksalad plant response rating [7, 15]: 80
- Plant response rating, Ducksalad [7, 16]: 95

SMILES: CCn1nc(C2(C)CC2)cc1C(=O)Nc1cc(C(=O)N(C)C)ccc1F [Compound 299]
- Plant response rating, Bermudagrass [1, 8]: 100
- Plant response rating, Bermudagrass [1, 9]: 100
- Plant response rating, Bermudagrass [1, 10]: 100
- Bermudagrass plant response rating [1, 11]: 100
- Plant response rating, Crabgrass, Large [2, 12]: 100
- Plant response rating, Crabgrass, Large [2, 9]: 100
- Plant response rating, Crabgrass, Large [2, 10]: 100
- Plant response rating, Crabgrass, Large [2, 13]: 100
- Plant response rating, Cupgrass, Woolly [3, 12]: 50
- Plant response rating, Cupgrass, Woolly [3, 9]: 70
- Plant response rating, Cupgrass, Woolly [3, 10]: 90
- Plant response rating, Cupgrass, Woolly [3, 13]: 100
- Plant response rating, Foxtail, Giant [4, 12]: 100
- Plant response rating, Foxtail, Giant [4, 9]: 100
- Plant response rating, Foxtail, Giant [4, 10]: 100
- Plant response rating, Foxtail, Giant [4, 13]: 100
- Plant response rating, Goosegrass [5, 12]: 100
- Plant response rating, Goosegrass [5, 9]: 100
- Plant response rating, Goosegrass [5, 10]: 100
- Plant response rating, Goosegrass [5, 13]: 100
- Plant response rating, Pigweed [6, 12]: 100
- Plant response rating, Pigweed [6, 9]: 100
- Plant response rating, Pigweed [6, 10]: 100
- Plant response rating, Pigweed [6, 13]: 100
- Ducksalad plant response rating ([7]; 62 g ai/ha, scale 0 to 100): 95
- Ducksalad plant response rating [7, 14]: 95
- Ducksalad plant response rating [7, 15]: 95
- Plant response rating, Ducksalad [7, 16]: 95

SMILES: CCn1nc2c(c1C(=O)Nc1cc(C(=O)N(C)C)ccc1F)CCC2(C)C [Compound 352, N-[5-[(dimethylamino)carbonyl]-2-fluorophenyl]-2-ethyl-2,4,5,6-tetrahydro-6,6-dimethyl-3-cyclopentapyrazolecarboxamide]
- Plant response rating (0 = no effect, 100 = complete control), Bermudagrass ([1]; 125 g ai/ha, preemergence): 100
- pest or weed control at 62 g/ha ([1]; Cynodon dactylon, pre-emergence, 312 h, 62 g ai/ha, preemergence, scale 0 to 100, 0 no effect, 100 complete control, read-out: Plant response rating, Bermudagrass): 95%
- pest or weed control at 250 g/ha ([1]; Cynodon dactylon, pre-emergence, 312 h, 250 g ai/ha, scale 0-100, read-out: Plant response rating, Bermudagrass): 100%
- pest or weed control at 500 g/ha ([1]; Cynodon dactylon, pre-emergence, 312 h, 500 g ai/ha, scale 0 to 100 (0 no effect, 100 complete control), visual, 12 to 14 days, read-out: Plant response rating, Bermudagrass): 100%
- Plant response rating (0 = no effect, 100 = complete control), Crabgrass, Large ([2]; 125 g ai/ha, preemergence): 85
- pest or weed control at 62 g/ha ([2]; Digitaria sanguinalis, pre-emergence, 312 h, 62 g ai/ha, preemergence, scale 0 to 100, read-out: Plant response rating, Crabgrass, Large): 55%
- pest or weed control at 250 g/ha ([2]; Digitaria sanguinalis, pre-emergence, 312 h, 250 g ai/ha, scale 0-100, read-out: Plant response rating, Crabgrass, Large): 100%
- pest or weed control at 500 g/ha ([2]; Digitaria sanguinalis, pre-emergence, 312 h, 500 g ai/ha, scale 0 to 100 (0 no effect, 100 complete control), visual, 12 to 14 days, read-out: Plant response rating, Crabgrass, Large): 100%
- Plant response rating (0 = no effect, 100 = complete control), Cupgrass, Woolly ([3]; 125 g ai/ha, preemergence): 50
- pest or weed control at 62 g/ha ([3]; Eriochloa villosa, pre-emergence, 312 h, 62 g ai/ha, preemergence, scale 0 to 100, read-out: Plant response rating, Cupgrass, Woolly): 5%
- pest or weed control at 250 g/ha ([3]; Eriochloa villosa, pre-emergence, 312 h, 250 g ai/ha, scale 0-100, read-out: Plant response rating, Cupgrass, Woolly): 60%
- pest or weed control at 500 g/ha ([3]; Eriochloa villosa, pre-emergence, 312 h, 500 g ai/ha, scale 0 to 100 (0 no effect, 100 complete control), visual, 12 to 14 days, read-out: Plant response rating, Cupgrass, Woolly): 85%
- Plant response rating (0 = no effect, 100 = complete control), Foxtail, Giant ([4]; 125 g ai/ha, preemergence): 60
- pest or weed control at 62 g/ha ([4]; Setaria faberi, pre-emergence, 312 h, 62 g ai/ha, preemergence, scale 0 to 100, read-out: Plant response rating, Foxtail, Giant): 5%
- pest or weed control at 250 g/ha ([4]; Setaria faberi, pre-emergence, 312 h, 250 g ai/ha, scale 0-100, read-out: Plant response rating, Foxtail, Giant): 100%
- pest or weed control at 500 g/ha ([4]; Setaria faberi, pre-emergence, 312 h, 500 g ai/ha, scale 0 to 100 (0 no effect, 100 complete control), visual, 12 to 14 days, read-out: Plant response rating, Foxtail, Giant): 100%
- Plant response rating (0 = no effect, 100 = complete control), Goosegrass ([5]; 125 g ai/ha, preemergence): 85
- pest or weed control at 62 g/ha ([5]; Eleusine indica, pre-emergence, 312 h, 62 g ai/ha, preemergence, scale 0 to 100, read-out: Plant response rating, Goosegrass): 80%
- pest or weed control at 250 g/ha ([5]; Eleusine indica, pre-emergence, 312 h, 250 g ai/ha, scale 0-100, read-out: Plant response rating, Goosegrass): 100%
- pest or weed control at 500 g/ha ([5]; Eleusine indica, pre-emergence, 312 h, 500 g ai/ha, scale 0 to 100 (0 no effect, 100 complete control), visual, 12 to 14 days, read-out: Plant response rating, Goosegrass): 100%
- Plant response rating (0 = no effect, 100 = complete control), Pigweed ([6]; 125 g ai/ha, preemergence): 85
- pest or weed control at 62 g/ha ([6]; Amaranthus retroflexus, pre-emergence, 62 g ai/ha, preemergence, scale 0 to 100, read-out: Plant response rating, Pigweed): 40%
- pest or weed control at 250 g/ha ([6]; Amaranthus retroflexus, pre-emergence, 250 g ai/ha, scale 0-100, read-out: Plant response rating, Pigweed): 100%
- pest or weed control at 500 g/ha ([6]; Amaranthus retroflexus, pre-emergence, 500 g ai/ha, scale 0 to 100 (0 no effect, 100 complete control), visual, 12 to 14 days, read-out: Plant response rating, Pigweed): 100%
- pest or weed control at 62 g/ha ([7]; Heteranthera limosa, 62 g ai/ha, scale 0 to 100, read-out: Ducksalad plant response rating): 20%
- pest or weed control at 125 g/ha ([7]; Heteranthera limosa, 125 g ai/ha, scale 0 to 100 (0 no effect, 100 complete control), read-out: Ducksalad plant response rating): 65%
- pest or weed control at 250 g/ha ([7]; Heteranthera limosa, 250 g ai/ha, scale of 0 to 100, 0 is no effect, 100 is complete control, read-out: Ducksalad plant response rating): 85%
- pest or weed control at 500 g/ha ([7]; Heteranthera limosa, 500 g ai/ha, visual rating after 12 to 14 days, scale 0 to 100 (0 no effect, 100 complete control), read-out: Plant response rating, Ducksalad): 95%
